Data as given in patent US20020160055A1, “Methods for treating human immunodeficiency virus infections with gallium compositions” (priority 2000, published 2002).

What was measured:
[1] = system: HIV; conditions: results of U.S. Pat. No. 5,525,598; cited from earlier work
[2] = system: PBMC; assay: Effects on PBMC proliferation and viability (Trypan blue staining and counting); assay type: cell-based, human; conditions: 48 hrs
Description: FIG. 4—Effects of Gallium Nitrate on PBMC Proliferation and Viability. Experiments were carried out in duplicate, and experiments repeated a minimum of three times. Gallium nitrate (Ga) was obtained from the National Cancer Institute. Cells were incubated in Ga at concentrations noted, and were stained at 48 hrs with Trypan blue and counted.
(§1) Various concentrations of Ga or HU were added to PHA/IL2 stimulated PBMC's 24 hours prior to infection with HIV. Following infection, cells were washed and culture supernatants were obtained 4 and 7 days post-infection.

[3] = system: HIV-1; assay: Inhibition of HIV replication in PHA/IL2 stimulated PBMC's (p24 antigen in culture supernatants); assay type: cell-based
Description: FIG. 1—Gallium Nitrate and Hydroxyurea Inhibition of HIV-1 Replication. PHA/IL-2 stimulated human PBMC's (1×10^6), and MT-2 cells (1×10^6) were grown and maintained in RPMI 1640 media containing 20% fetal calf sera, glutamine and antibiotics (Thelander & Reichard, 1979). Experiments were carried out in duplicate, and experiments repeated a minimum of three times. Gallium nitrate (Ga) was obtained from the National Cancer Institute. Hydroxyurea (HU) was obtained from Sigma Chemicals (St. Louis, Mo.). Ga and HU were added to PBMC's 24 hrs prior to infection, and cells were washed 16 hrs post-infection. Culture supernatants were obtained 4 and 7 days post-infection for p24 antigen measurement.
as §1
HIV (Catalog# 1073, NIH AIDS Reference Program) was used in these studies. […] Viral replication was measured by determining the concentration of p24 antigen in culture supernatants (Organon-Teknika), and by visually observing a reduction in syncytia formation (Cook et al., 1997). In addition, a quantitative measurement of syncytia induction—inhibition was employed (described below). […]

Cc1cn([C@H]2C[C@H](N=[N+]=[N-])[C@@H](CO)O2)c(=O)[nH]c1=O [3′-azido-2,3′-deoxythymidine]
therapeutic index [1]: 3680

O=[N+]([O-])[O-].O=[N+]([O-])[O-].O=[N+]([O-])[O-].[Ga+3] [Ga, Gallium nitrate]
effect on cellular proliferation or viability at concentrations inhibiting HIV replication [2]: did not inhibit cellular proliferation or viability
fold lower IC50 of Ga than HU ([3]; present culture system): approximately 15 fold

NC(=O)NO [HU, Hydroxyurea]
IC50 ([3]; Human immunodeficiency virus 1, PHA/IL2 stimulated PBMC's, added 24 hours prior to infection, supernatants 4 and 7 days post-infection): 120 µM
